Source: patent publication US11471528B2, “Methods for using extracellular adenosine inhibitors and adenosine receptor inhibitors to enhance immune response and inflammation” (The Government of the United States of America as …, priority 2001, dated 2022)

Tests used:
[1] = tested on: anti-TNP-specific immunoglobulins; experiment: TNP-KLH vaccination, serum anti-TNP-specific immunoglobulins (ELISA); assay type: in vivo, mice; details: for serum levels of anti-TNP-specific IgG1: seven days, versus control; for IgG2: day 7, co-injected with TNP-KLH
Experimental: The antigen was prepared for injection as follows. DNP-KLH (1.0 mg/ml, Biosearch Technologies, Inc. catalog no. T-5060-5) was prepared in PBS (e.g. dissolve 4.0 mg of purified DNP-KLH in PBS and raise volume to 4.0 ml). Complete Freund's Adjuvant (2.0 ml, CFA; Sigma F-5881) was vortexed and mixed with 2.0 ml of the TNP-KLH solution at 4° C. The CFA/KLH mixture was drawn into a 3-ml glass syringe with a 19-gauge needle. The syringe was attached to a double-ended locking hub connector or a plastic 3-way stopcock. An empty 2-ml glass syringe was attached to the other end and the mixture forced back and forth from one end to the other repeatedly. When the mixture was white and homogeneous, the connector or stopcock was disconnected, a 25 gauge needle attached, and tested for emulsion by placing a drop on the surface of 50 ml of cold water in a 100-ml beaker. The drop should hold together; if not, repeat mixing. […] Samples of blood were obtained by retro-orbital bleeding at 7, 14, and 21 days after TNP-KLH and theophylline injection. Serum levels of anti-TNP-specific IgG1, IgG2a, IgG2b, IgG3, and IgM were estimated using an ELISA kit (Sigma) according to the manufacturer's instructions.

[2] = tested on: B16 melanoma cells; experiment: B16 melanoma tumor growth; assay type: in vivo, mice; details: daily i.p., ZM241385 0.2 mg/mouse, caffeine 0.4 mg/mouse, start 28 days after tumor cells; FIG. 14
From the text: […] (immunocompromised nude mice; or immunocompetent C57BL/6 mice) were inoculated subcutaneously with B16 melanoma cells (American Type Culture Collection, Manassas, Va.), or B16-H2-Kd transfected tumor cells (increases the immunogenicity of the cells) on day zero to induce the formation of melanomas. The treatment with adenosine receptor antagonists started 28 days after injection of tumor cells, when the tumor reached 7-9 mm in diameter.
[…]. The delay in tumor growth was greater in immunocompetent C57BL/6 mice, and less so in immunocompromised nude mice. However, as the tumor increases in size, both antagonists slow down tumor growth even in immunocompromised animals. […] In addition, adenosine receptor antagonists appear to improve both anti-tumor immunity and preventing or decreasing angiogenesis.

[3] = tested on: NF-kB-regulated pro-inflammatory cytokines (TNFα, IL-12p40); experiment: Cytokine mRNA in spleen of CpG-activated mice (RNase protection assay); assay type: in vivo; details: C57BL/6 mice, 10 mg/kg i.p. 15 minutes before CpG, FIGS. 8A and 8B
Experimental: Mutant (A2aR^−/−) or wild-type mice were injected (i.p.) with 20 nmol CpG oligonucleotide (5′-T*C*[…]*A*T*G*C*T-3′, asterisk means phosphorothioate. SEQ ID NO. 1). This toll-receptor activating CpG DNA preparation stimulates the immune system. After one hour, mRNA was extracted from spleenocytes and analyzed for cytokine gene expression using an RNase protection assay with commercial templates (mCK-2b and mCK-3b, Pharmingen, San Diego, Calif.).

[4] = tested on: CMS4 tumor cells; experiment: CMS4 lung tumors with antigen-specific CTL immunotherapy; assay type: in vivo; details: BALB/c mice, CMS4 i.v., CTL on day 10; ZM241385 10 mg/kg/day i.p. or caffeine 0.1% w/v in drinking water; FIGS. 12A-C
From the text: BALB/c mice were inoculated i.v. with CMS4 tumor cells (Methylcholanthrene-induced sarcoma, 2.5×10^5 cells) on day zero to induce the formation of lung tumors. […] The lung tumors were subsequently examined on days 17, day 18 and day 24, by sacrificing the mice and evaluating their lungs for the number and size of metastasis by visual inspection.

[5] = tested on: activated macrophages and T cells; experiment: Secretion of IL-12 and IFN-γ by activated macrophages and T cells in vitro (ELISA); assay type: cell-based; details: FIG. 1B
[6] = tested on: IkB; experiment: IkB phosphorylation in macrophages after CpG (Western blot); assay type: in vivo; details: C57BL/6 mice, 5 nMol CpG i.v., CGS21680 2 mg/kg, macrophages after 20 minutes
Experimental: After 20 minutes, macrophages were isolated as described above, and subjected to Western blot analysis using Ab that recognize IkB and Ab can distinguish the phosphorylated form of IkB (IkB-P).

[7] = co-injected with TNP-KLH, about 1 mg/kg

What does the source list for `Cn1c(=O)c2[nH]cnc2n(C)c1=O` [theophylline]?
serum levels of anti-TNP-specific IgG1 ([1]; co-injected i.p. with TNP-KLH, FIG. 15): markedly increased; serum levels of anti-TNP-specific IgG1 ([1]; co-injected subcutaneously with TNP-KLH): improvement of antibody production; serum levels of anti-TNP-specific IgG1 ([1]; co-injected subcutaneously with TNP-KLH, listed as theophyllin): markedly increased

With `Nc1nc(NCCc2ccc(O)cc2)nc2nc(-c3ccco3)nn12` [ZM241385] as the compound, how does the tumor growth [2] read?
Its tumor growth is “tumor retardation that became significant after 3-7 days of treatment”.

And the “mRNA expression of NF-kB-regulated pro-inflammatory cytokines” value [3]?
The value was “higher expression of NF-kB-regulated pro-inflammatory cytokines”.

And the “number of metastatic nodules in the lung” value [4]?
Its value is “decrease in the number of metastatic nodules”.

What about the IgG2 [1] of the same compound?
The IgG2 was “improved”.

And the “serum levels of anti-TNP-specific IgG1” value [1, 7]?
The value was “markedly increased”.

Which results are given for `O=C(Cc1ccccc1)Nc1nc2ccc(Cl)cc2c2nc(-c3ccco3)nn12` [MRS1220]?
IgG2 [1]: improved; serum levels of anti-TNP-specific IgG1 [1, 7]: markedly increased

What does the source list for `CCNC(=O)[C@H]1O[C@@H](n2cnc3c(N)nc(NCCc4ccc(CCC(=O)O)cc4)nc32)[C@H](O)[C@@H]1O` [CGS21680]?
secretion of IFN-γ [5]: inhibited secretion; secretion of IL-12 [5]: inhibited secretion; phosphorylation of IkB [6]: decreased or inhibited
